System: RFX1 gene expression in human glioma U251 cells
Experiment: RFX1 gene re-expression by 5-azacytidine and trichostatin A treatment, RT-PCR
Format: cell-based
Conditions: single inhibitor, compared with the control, 5-azacytidine 500 nM for 3 days, trichostatin A 500 ng/ml for 24 hours
Procedure: Total RNAs derived from human glioma tissues (GB4, GB13, GB16, and GB17) and human glioma cell lines were extracted with Trizol (manufactured by GIBCO), and total RNAs of normal tissues were purchased from Clontech. cDNAs were synthesized from 10 μg of each of total RNAs using the reverse transcriptase XL (AMV) (manufactured by Takara Shuzo Co., Ltd.) in a final volume of 10 μl. PCR was performed in the system in a total volume of 25 μl, using 1 μl cDNA template and Takara Taq™ (manufactured by Takara Shuzo Co., Ltd.). […]
The resulting PCR products were electrophoresed on 2% agarose gel and analyzed by ethidium bromide staining.
Human glioma cell lines were plated at a low density, incubated for 24 hours, and then 5-azacytidine (methyltransferase inhibitor) (manufactured by Sigma Chemical Co.) was added at a final concentration of 500 nM. […] PCR was then performed and changes in gene expression were analyzed using each agent.
To investigate the relationship between reduction or loss of expression of the RFX1 and BGT-1 genes in glioma and DNA methylation or histone deacetylation, change in expression of each gene was analyzed using the RT-PCR method, either after treatment of human glioma cell lines with the methyltransferase inhibitor 5-azacytidine and the histone deacetylase inhibitor trichostatin A singly or after treatment of cells with both inhibitors.

Structure (SMILES) | change in expression of the RFX1 gene (RT-PCR)
Nc1ncn([C@@H]2O[C@H](CO)[C@@H](O)[C@H]2O)c(=O)n1 [5-azacytidine] | enhancement of expression
CC(/C=C/C(=O)NO)=C\[C@@H](C)C(=O)c1ccc(N(C)C)cc1 [trichostatin A] | enhancement of expression
